{
  "source": "patent US20040126755A1",
  "about": "“Gene expression based method for distinguishing metastatic from non-metastatic forms of a tumor, and use in designing therapeutic drugs” (priority 2001, published 2004)",
  "type_in_all_cases": "cell-based, human",
  "key": {"[1]": {"tested_on": "Daoy cells", "assay": "Fibronectin-mediated cell migration assay (Boyden chamber, Chemicon QCM-FN)", "protocol": "Fibronectin-mediated cell adhesion and migration were assessedusing the Chemicon QCM-FN Quantitative Cell Migration Assay (Chemicon International). Briefly, Daoy cells were grown in EMEM withh 10% FBS to 80% confluency and starved in serum-free EMEM for 24 h. Cells were washed twice with PBS, harvested them with trypsin/EDTA, and resuspended them in serum-free EMEM (1×10^6 cells/ml) with 5% BSA for 1 h. We subsequently incubated cells at 37 ° C. for 30 min with either no antibody, 0.6 ug/ml of neutralizing monoclonal anti-human PDGFRA antibody (R&D Systems), 0.6 ug/mi isotype-matched control antibody (R&D Systems), and or first pretreated them with 10 μM of MAP2K1/MAP2K2 inhibitor U0126 (Cell Signaling Technology) for 1 h. We based the concentration of antibody used on the ND50 for this lot of antibody for blocking 10 ng/ml of PDGFRA biologic activity on human WS1 cells (per R&D Systems product insert). We based the concentration of MAP2K1/MAP2K2 inhibitor U0126 used on the manufacturer?s recommendation. Following incubations, we resuspended the cells, and placed aliquots of 2×10^5 cells in 200 ul of serum-free EMEM into the upper fibronectin-(FN-) coated or BSA-coated (control) Boyden chambers (migration assay), or FN-coated wells (adhesion assay). The lower well contained 0, 1, 2, 4, 6, 8, or 10 ng/ml PDGFA (Chemicon) in 300 ll serum-free EMEM. We incubated the cells for 3 h at 37° C., stained them with cell stain solution (Chemicon), and subsequently washed them. We removed the medium, as well as non-adherent or non-migrating cells, from the upper side of the Boyden chamber membranes. We first visualized the cells by microscopy, and then subsequently eluted migrating or adherent cells with extraction solution (Chemicon) according to the manufacturer? s instructions. We aliquoted eluant (50 μl)×2 for each test sample into microtiter plates, and read the optical density (OD540-570) on a ThermoMax microplate reader (Molecular Devices). Using standardized migration rates of 130 cells per mm^2 equivalent to an OD550 of 0.270 (per Chemicon product insert), we obtained the final cell counts by averaging the two OD measurements (540 nm and 570 nm) after subtraction of the BSA control measurements (background), and determined significance (P value) using a t-test.\nWe tested the significance of PDGFRA in the metastatic potential of Daoy cells by fibronectin-dependent adhesion and migration assays.\nTo further test whether medulloblastoma migration is directly linked in part to downstream MAP2K1, MAP2K2 and MAPK1/3 activation, Daoy migration was tested in an identical fashion to that described above, except that cells were pretreated with U0126, a highly specific chemical inhibitor of MAP2K1 and MAP2K2 (FIG. 5b)."}, "[2]": {"tested_on": "MAPK1/3", "assay": "Western blot, phospho-MAPK1/3 to total ratio in Daoy cell lysates", "protocol": "(§1) Daoy cells were treated in a manner identical to that described above for migration. After described incubation with PDGFA, PDGFRA antibody, or MAP2K1/MAP2K2 inhibitor U0126, we prepared cell lysates by adding 500 ul lysis buffer (Cell Signaling Technology) to cell pellets on ice for 20 min, sonicating, and centrifuging at 10,000 RPM for 10 min. We collected the supernatants and mixed equal amounts of lysate protein (5.2 ug) in a 1:1 mixture with Tris-Glycine SDS sample buffer Covex). Samples were run on a 12% SDS-PAGE gel (BioRad) along with broad range protein markers (BioRad) at 125 V for 1 h. We transferred proteins to PVDF membrane (NEN Life Sciences) using a semi-dry transfer cell (BioRad). We first soaked the membrane in anhydrous methanol for 2 min, deionized water for 5 min, and transfer buffer (25 mM Tris, 0.2 M glycine, 20% methanol, pH 8.5) for 10 min. The gels were pre-soaked in transfer buffer for 15 min and subsequently electro-blotted to the membrane between filter paper soaked in transfer buffer for 45 min at a current equivalent to 2.5 × total gel area (cm^2). Following blotting, we incubated the membrane in blocking buffer (3% BSA in TBS-T) for 1 h at room temperature with gentle agitation. We subsequently incubated the membrane with primary antibody (MAP2K1/2 antibody, phospho-MAP2K1/2 (Ser217/221) antibody, MAPK1/3 (p42/p44 MAPK) antibody, or phospho-MAPK1/3 (Thr202/Tyr204) antibody; Cell Signaling Technology) diluted 1:1000 in blocking buffer overnight at 4° C. We washed the membranes in wash buffer (1% BSA in TBS-T) 3 times (1× for 10 min and 2× for 5 min) and incubated them with anti-rabbit HRP-conjugated secondary antibody (Cell Signaling Technology) diluted 1:2000 in blocking buffer for 1 h with gentle agitation at room temperature. We subsequently washed membranes with gentle agitation 5 times with 1%BSA in TBS-T (1× for 10 min in, 4× for 5 min) and once in TBS-T for 5 min. […] We scanned the developed films, and determined the optical density of each lane using NIH Image (available at http://rsb.info.nih.gov/nih-image/Default.html). […]"}, "[3]": {"tested_on": "Daoy cells", "assay": "Fibronectin-mediated cell adhesion assay (Chemicon QCM-FN)", "settings": "increasing concentrations of PDGFA, no antibody", "protocol": "Fibronectin-mediated cell adhesion and migration were assessedusing the Chemicon QCM-FN Quantitative Cell Migration Assay (Chemicon International). Briefly, Daoy cells were grown in EMEM withh 10% FBS to 80% confluency and starved in serum-free EMEM for 24 h. Cells were washed twice with PBS, harvested them with trypsin/EDTA, and resuspended them in serum-free EMEM (1×10^6 cells/ml) with 5% BSA for 1 h. We subsequently incubated cells at 37 ° C. for 30 min with either no antibody, 0.6 ug/ml of neutralizing monoclonal anti-human PDGFRA antibody (R&D Systems), 0.6 ug/mi isotype-matched control antibody (R&D Systems), and or first pretreated them with 10 μM of MAP2K1/MAP2K2 inhibitor U0126 (Cell Signaling Technology) for 1 h. […] We aliquoted eluant (50 μl)×2 for each test sample into microtiter plates, and read the optical density (OD540-570) on a ThermoMax microplate reader (Molecular Devices). Using standardized migration rates of 130 cells per mm^2 equivalent to an OD550 of 0.270 (per Chemicon product insert), we obtained the final cell counts by averaging the two OD measurements (540 nm and 570 nm) after subtraction of the BSA control measurements (background), and determined significance (P value) using a t-test. […]"}, "[4]": {"tested_on": "MAP2K1", "assay": "Western blot, phospho-MAP2K1 to total ratio in Daoy cell lysates", "settings": "PDGFA 10 ng/ml", "protocol": "as §1, with “agitation.” for “agitation. We subsequently incubated the membrane with primary antibody (MAP2K1/2 antibody, phospho-MAP2K1/2 (Ser217/221) antibody, MAPK1/3 (p42/p44 MAPK) antibody, or phospho-MAPK1/3 (Thr202/Tyr204) antibody; Cell Signaling Technology) diluted 1:1000 in blocking buffer overnight at 4° C. We washed the membranes in wash buffer (1% BSA in TBS-T) 3 times (1× for 10 min and 2× for 5 min) and incubated them with anti-rabbit HRP-conjugated secondary antibody (Cell Signaling Technology) diluted 1:2000 in blocking buffer for 1 h with gentle agitation at room temperature. We subsequently washed membranes with gentle agitation 5 times with 1%BSA in TBS-T (1× for 10 min in, 4× for 5 min) and once in TBS-T for 5 min.”"}, "[5]": {"tested_on": "MAP2K2", "assay": "Western blot, phospho-MAP2K2 to total ratio in Daoy cell lysates", "settings": "PDGFA 10 ng/ml", "protocol": "as §1, with “agitation.” for “agitation. We subsequently incubated the membrane with primary antibody (MAP2K1/2 antibody, phospho-MAP2K1/2 (Ser217/221) antibody, MAPK1/3 (p42/p44 MAPK) antibody, or phospho-MAPK1/3 (Thr202/Tyr204) antibody; Cell Signaling Technology) diluted 1:1000 in blocking buffer overnight at 4° C. We washed the membranes in wash buffer (1% BSA in TBS-T) 3 times (1× for 10 min and 2× for 5 min) and incubated them with anti-rabbit HRP-conjugated secondary antibody (Cell Signaling Technology) diluted 1:2000 in blocking buffer for 1 h with gentle agitation at room temperature. We subsequently washed membranes with gentle agitation 5 times with 1%BSA in TBS-T (1× for 10 min in, 4× for 5 min) and once in TBS-T for 5 min.”"}},
  "data": [
    {"molecule": "N#CC(=C(/N)Sc1ccccc1N)/C(C#N)=C(\\N)Sc1ccccc1N", "note": "[U0126]", "values": [
      {"measurement": "decreased cell migration, %", "setting": "[1]; U0126 10 μM pretreatment, no PDGFA", "result": 50, "unit": "%"},
      {"measurement": "migration, % of normal baseline migration", "setting": "[1]; U0126 treated cells, 1 ng/ml PDGFA", "result": 57, "unit": "%"},
      {"measurement": "Daoy cell migration", "setting": "[1]; U0126 treated cells, 1 ng/ml PDGFA, baseline 275, P<0.05", "result": 158, "unit": "cells/mm^2"},
      {"measurement": "migration, % of normal baseline migration", "setting": "[1]; U0126 treated cells, 10 ng/ml PDGFA", "result": 65, "unit": "%"},
      {"measurement": "Daoy cell migration", "setting": "[1]; U0126 treated cells, 10 ng/ml PDGFA, baseline 275, P<0.05", "result": 188, "unit": "cells/mm^2"},
      {"measurement": "Daoy cell migration", "setting": "[1]; U0126 treated cells, no PDGFA, untreated 275, P<0.05", "result": 139, "unit": "cells/mm^2"},
      {"measurement": "decrease in baseline phosphorylation of MAPK1/3, fold", "setting": "[2]; U0126 10 μM pretreatment 1 h, at start of migration assay", "result": 9, "unit": "fold"},
      {"measurement": "effect on PDGFA-mediated MAPK1/3 phosphorylation", "setting": "[2]; U0126 pre-treatment then PDGFA (FIG. 6b)", "result": "blocks PDGFA-mediated MAPK1/3 phosphorylation"}
    ]},
    {"molecule": "PDGFA: PDGFRA ligand, growth factor (Chemicon) used to stimulate Daoy cells", "values": [
      {"measurement": "effect on adhesion of Daoy cells to fibronectin", "setting": "[3]", "result": "did not affect the adhesion"},
      {"measurement": "stimulation of Daoy migration across fibronectin-coated membranes, fold", "setting": "[1]; 1 ng/ml PDGFA in lower well, vs no PDGFA", "result": "approximately 3 fold"},
      {"measurement": "Daoy cell migration", "setting": "[1]; 1 ng/ml PDGFA in lower well, untreated 212", "result": 640, "unit": "cells/mm^2"},
      {"measurement": "Daoy cell migration", "setting": "[1]; 4 ng/ml PDGFA in lower well, untreated 212", "result": 819, "unit": "cells/mm^2"},
      {"measurement": "increase in Daoy migration, fold", "setting": "[1]; 10 ng/ml PDGFA in lower well, vs no PDGFA", "result": 4, "unit": "fold"},
      {"measurement": "Daoy cell migration", "setting": "[1]; 10 ng/ml PDGFA in lower well, untreated 212", "result": 847, "unit": "cells/mm^2"},
      {"measurement": "increase in MAP2K1 phosphorylation, fold", "setting": "[4]", "result": 1.6, "unit": "fold"},
      {"measurement": "increase in MAP2K2 phosphorylation, fold", "setting": "[5]", "result": 1.3, "unit": "fold"},
      {"measurement": "increase in MAPK1/3 phosphorylation, fold", "setting": "[2]; PDGFA 10 ng/ml", "result": 1.7, "unit": "fold"}
    ]}
  ]
}
